Where “and” joins values, the source holds several entries; their conditions need not be identical. Equal values may be shown once.
Tests used:
RMA-S tumor = assay: Spleen metastasis by limiting dilution of spleen cells
Procedure: (§2) Vaccine preparation and administration. RMA-S cells were incubated with ManNPr (1 mg/ml) for 48 hour, and after washing with PBS, they were suspended in PBS and killed by heating at 70° C. for 10 min. Mice were injected subcutaneously with 2×10^6 RMA-S cells at the area of rear flank to develop a solid tumor. […] Whole cell vaccines (2×10^6 cells) were inoculated at day 8 and tumor growth was monitored routinely.
Limiting dilution-Cell suspension of the mouse spleen was prepared in RPMI 1640 medium. One fifth of each spleen suspension was used to initiate a 2-fold serial dilution with complete RPMI 1640 medium and the cells were cultured over 20 days. Cancer cells of metastasis of spleen were examined under the microscope.
One fifth of cell suspension of spleen was used to initiate a serial 2-fold dilution. Cells were cultured over 20 days and tumor cells from the spleen were examined under the microscope. The negative score was the cell culture that had no tumor cells in comparison of the positive score with tumor cells in cell culture.

polysialic acid = conditions: RMA-S tumor-bearing mice, CY day 7, vaccine day 8
Procedure: ELISA. Total IgG antibody was measured by ELISA. Each well of ELISA plate was coated with HAS conjugates (0.5 μl/50 μl PBS/well) of NAc or NPr polysialic acids (11 kDa fractions), and blocked with 150 μl of 10%FBS in PBS. The plates were then washed three times with PBS and Tween20 (0.05%). Sera were added into well of plate after serial dilutions. The plates were kept for 1 hour at room temperature. After washing, anti-mouse IgG conjugates with horseradish peroxide (50 μl) were added into each well of plate and incubated for 1 hour at room temperature. Plates were further washed five times with PBS and Tween20 (0.05%) and 100 Ill of substrate 2,2′-azino-bis-(3-ethylbenthiazoline-6-sulfonic acid)(1 mg/ml) in 44 mM Na2HPO4, 20 mM citric acid and 0.3% H2O2. The plates were read at 405 nm with reference wavelength of 490 nm.
as §2

RMA-S cells = assay: Flow cytometry of polysialic acid and NPr polysialic acid expression on RMA-S cells incubated with ManNPr; assay type: cell-based, mouse
Procedure: (§1) Flow Cytometry. For flow cytometry, cells were incubated with MAbs 13D9 or 735 in 50 μl of RPMI+1% FBS on ice for 30 min. The cells were then washed and incubated with FITC-labelled secondary antibodies. After 30 min the cells were washed and fixed in 1% formaldehyde and assayed on a flow cytometer (Coulter Incorporation, Miami, Fla.).
Preparation of vaccines. RMA-S cells derived from leukemic cell line RMA, are defective in transportation-associated proteins (12). However, RMA-S cells like those of the original RMA cells (9), can still incorporate ManNPr into their surface polysialic acid as shown by flow cytometric analysis. FIG. […] Following harvesting of the cells the expression of polysialic acid and its NPr analog were measured by flow cytometry using MAb 735 and MAb 13D9 respectively.
Heat-killed RMA-S cells pretreated with 1 mg/ml ManNPr for 48 h, were then used as the autologous vaccine.

P815 cells = assay: Flow cytometry of polysialic acid and NPr polysialic acid expression on P815 cells incubated with ManNPr; assay type: cell-based, mouse; conditions: 1 mg/ml ManNPr
Procedure: as §1
To identify a cell line allogeneic to RMA-S, but which was also able to express polysialic acid, a number of allogeneic tumor cell lines were screened by flow cytometric analysis using MAb 735 (data not shown). […] FIG. 1B illustrates NPr polysialic acid expression on the surface of tumor cells for P815 cells incubated with 1 mg/ml ManNPr in cell culture. The cells were harvested at intervals and the expression of polysialic acid and its NPr analog were measured as described above. P815 cells were treated with ManNPr for different time periods, and after washing, they were stained with either MAb 735 or MAb 13D9. […] Obviously the transformation of polysialic acid on the surface of P815 cells follows a different pattern from RMA-S RMA and RBL-2H3 (9) cell lines that already have higher initial levels of expression of polysialic acid. Heat-killed P815 cells, pretreated with ManNPr, were then used as the allogeneic vaccine.

O=P1(N(CCCl)CCCl)NCCCO1 (centres unmarked) [CY, cyclophosphamide]
Percentage of spleen metastasis (RMA-S tumor; Table 3 experiment): 75% | Metastasis of Spleen, Percentage (RMA-S tumor; day 35, summary of two experiments): (78%) | metastasis score of spleen of individual mouse (row head: Treatment) (RMA-S tumor; one cell per mouse, spleen cells cultured over 20 days): + (3×) and − | sera binding to polysialic acid (polysialic acid): no binding

CCC(=O)N[C@@H]1C(O)O[C@H](CO)[C@@H](O)[C@@H]1O (some centres unmarked) [ManNPr, N-propionylmannosamine]
conversion of surface polysialic acid to NPr polysialic acid (staining with MAb 13D9) (RMA-S cells; ManNPr at different concentrations): significantly converted to NPr polysialic acid | binding of MAb 735 (polysialic acid) to the cell surface (RMA-S cells; increasing amounts of ManNPr): binding to the cell surface became weaker | binding of MAb 735 (polysialic acid) to the cell surface (P815 cells): slight increase in the binding of MAb 735 | shift of fluorescence on staining with MAb 13D9 (NPr polysialic acid) (P815 cells; different time periods): large shift of fluorescence

From US20030108574A1, “Carbohydrate-based whole cell cancer vaccines” (priority 2001, published 2003)
